For one assay, the target named is tryptase. In words: GPK-AMC assay for tryptase activity (Dixon plot). The conditions noted are these: 20 and 40 μM GPK-AMC; 37° C.; read-out: Ki for inhibition of tryptase catalyzed cleavage of GPK-AMC. The class given is biochemical, human. As to the method: Tryptase activity was measured according to the procedure of Schwartz, et al., J. Biol. Chem., 261, 7372-7379 (1986) , with minor modifications, using Gly-Pro-Lys-Aminomethylcoumarin (GPK-AMC) as a substrate. The reaction was performed in assay buffer (0.1M Tris, pH 8.0, 10 μg/ml heparin) at room temperature in a 96-well microtiter plate (Perkin-Elmer, Norwalk, Conn.). The amount of coumarin produced by tryptase was determined by measuring the fluorescence (ex=372 nm, em=432 nm) on a Perkin-Elmer LS-50B fluorimeter equipped with a plate reader. 50 μl of tryptase (final concentration of 333 pM) was mixed with either 50 μl of the sample to be tested or with assay buffer and incubated for 5 min. at room temperature. […] The fluorescence intensity was measured every 5 minutes. For samples that were being tested for modulators of tryptase activity, the % inhibition for each fraction was determined by:
Inhibitory activity against tryptase and bovine trypsin was measured using Gly-Pro-Lys-aminomethylcoumarin as a substrate. […] The amount of coumarin produced was determined by measuring the fluorescence (ex=370 nm, em=432 nm) on a Perkin-Elmer LS-50B fluorimeter. […] The reaction was started by the addition of the substrate GPK-AMC (20 or 40 μM final) and the increase in fluorescence was measured over a 2 minute period. […]

Assay [1] has as its system human mast cell tryptase. Kind of assay: VIP assay for tryptase activity (Dns-VIP hydrolysis, HPLC/fluorescence, Dixon plot). The class given is biochemical. To be noted: 0.4 and 0.8 μM VIP; 12.5 pM tryptase; 37° C.; read-out: Ki for inhibition of the formation of Dns-VIP-(1-14). As to the method:
In a typical assay, mast cell tryptase (12.5 pM) was incubated at 37° C. with dansyl-VIP (0.2-2 μM) in 100 mM Tris-HCl (pH 8.0) containing 1 μg/ml porcine mucosal heparin and 0.02% Triton X-100 in a final volume of 2.0 ml. To some samples, secretory leukocyte protease inhibitor was added to a final concentration of between 0 and 107 nM. The tryptase was pre-incubated with the SLPI, if added, for 5 min. at 37° C. before initiating the reaction by the addition of Dns-VIP. Aliquots (250 μl) were removed at 0, 2.5, 5.0, 7.5, 10, and 20 minutes to micro-vials (Sunbrokers) and the reaction terminated by the addition of TFA to a final concentration of 3% (v/v). The acidified reaction mixture was subjected to chromatography on a C-18 reverse-phase column (Vydac, 5 micron, 0.46×25 cm). Peptide hydrolysis was monitored by HPLC using a Hewlett Packard HP1090 unit complete with binary solvent delivery and autoinjection capability. Fluorescent detection (postcolumn) was performed with an inline Gilson Model 121 filter fluorimeter (excitation at 310-410 nm, emission at 480-520 nm). Dns-VIP fragments were separated from any unconverted Dns-VIP using a linear gradient of 69:31 (v/v) to 50:50 (v/v) C:D over 5.5 minutes (C=100 mM sodium acetate, pH 6.5 plus 0.2% sodium azide, D=80% ACN in water), with return to 69:31 (v/v) C:D at 6.5 minutes. Chromatography was performed at 1.0 ml/min at 25° C. […]

The target of the next assay is T1, bovine trypsin (Bos taurus, UniProt P00760).
T1 sequence (P00760 24-246): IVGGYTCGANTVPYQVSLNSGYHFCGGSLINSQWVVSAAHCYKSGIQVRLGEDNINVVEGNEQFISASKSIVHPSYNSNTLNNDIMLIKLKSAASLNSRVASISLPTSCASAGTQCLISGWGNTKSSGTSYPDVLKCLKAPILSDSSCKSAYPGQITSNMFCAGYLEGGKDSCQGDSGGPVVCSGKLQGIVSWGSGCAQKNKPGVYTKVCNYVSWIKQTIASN
In words: GPK-AMC assay for trypsin activity (Dixon plot). The class given is biochemical. To be noted: at a concentration of 1800 nM. As to the method: Inhibitory activity against tryptase and bovine trypsin was measured using Gly-Pro-Lys-aminomethylcoumarin as a substrate. The reaction was performed in assay buffer that consisted of 0.1M Tris (pH 8.0), 1 μg/ml heparin, 0.02% Triton X-100, with 20 mM CaCl2 included only in the trypsin assays. The amount of coumarin produced was determined by measuring the fluorescence (ex=370 nm, em=432 nm) on a Perkin-Elmer LS-50B fluorimeter. To measure tryptase activity, 12 μl of a 1 nM solution of tryptase (tetramer) was incubated with either the N- (34 to 650 nM final) or the C-terminal (7-150 nM final) domain of SLPI in 1.0 ml of assay buffer for 5 minutes at 37° C. The reaction was started by the addition of the substrate GPK-AMC (20 or 40 μM final) and the increase in fluorescence was measured over a 2 minute period. In order to measure trypsin activity, 3.3 μl of a 10 μg/ml solution was incubated with either the N- or C- terminal domains of SLPI, and assayed using both 10 and 20 μM GPK-AMC. To determine Ki values, Dixon plots of the form 1/V vs [I] were constructed.

Assay [2] concerns human mast cell tryptase. Kind of assay: Kinetic parameters for enzymatic cleavage of Dns-VIP by tryptase. The class given is biochemical. As to the method: In a typical assay, mast cell tryptase (12.5 pM) was incubated at 37° C. with dansyl-VIP (0.2-2 μM) in 100 mM Tris-HCl (pH 8.0) containing 1 μg/ml porcine mucosal heparin and 0.02% Triton X-100 in a final volume of 2.0 ml. To some samples, secretory leukocyte protease inhibitor was added to a final concentration of between 0 and 107 nM. The tryptase was pre-incubated with the SLPI, if added, for 5 min. at 37° C. before initiating the reaction by the addition of Dns-VIP. Aliquots (250 μl) were removed at 0, 2.5, 5.0, 7.5, 10, and 20 minutes to micro-vials (Sunbrokers) and the reaction terminated by the addition of TFA to a final concentration of 3% (v/v). The acidified reaction mixture was subjected to chromatography on a C-18 reverse-phase column (Vydac, 5 micron, 0.46×25 cm). Peptide hydrolysis was monitored by HPLC using a Hewlett Packard HP1090 unit complete with binary solvent delivery and autoinjection capability. Fluorescent detection (postcolumn) was performed with an inline Gilson Model 121 filter fluorimeter (excitation at 310-410 nm, emission at 480-520 nm). Dns-VIP fragments were separated from any unconverted Dns-VIP using a linear gradient of 69:31 (v/v) to 50:50 (v/v) C:D over 5.5 minutes (C=100 mM sodium acetate, pH 6.5 plus 0.2% sodium azide, D=80% ACN in water), with return to 69:31 (v/v) C:D at 6.5 minutes. Chromatography was performed at 1.0 ml/min at 25° C. The N-terminal fluorescent products were identified by subjecting known VIP fragments (see above) to chromatography under identical conditions.
The kinetic parameters Km, kcat, and Vmax for the initial rate of formation of Dns-VIP-(1-14) and Dns-VIP-(1-20), as well as the initial rate of disappearance of full-length Dns-VIP were determined. The initial velocity for the formation of Dns-VIP-(1-20) also contains the rate for the formation of Dns-VIP-(1-21) since it appears as a shoulder on the Dns-VIP-(1-20) peak within the elution profile. […] The effect of salt concentration on the initial rates of cleavage of Dns-VIP was measured in 150 mM NaCl and 10 mM CaCl2. In all cases, the kcat/Km values decreased with increasing salt concentration. […] However, this effect was offset by an increase in all of the Km values. […] The results for 10 mM CaCl2 were similar in that Km and Vmax values increased and kcat/Km ratios decreased.
Initial reaction velocities were obtained from a linear least squares analysis of the linear part of a plot of the number of picomoles of each product produced vs. time and where less than 10% of the total Dns-VIP was consumed. To determine the Ki value, a Dixon plot of the form 1/V vs. [I] was made for data collected at two different concentrations of VIP, where V is the velocity (pmoles/min) and [I] is the concentration of SLPI used.

Ends that are not written are not given here. * marks the point of attachment. Dansyl = CN(C)c1cccc2c(S(=O)(=O)*)cccc12

As for “N-terminal domain: N-terminal domain of SLPI, amino acids 1-49, from formic acid cleavage of recombinant SLPI (SGKSFKAGVCPPKKSAQCLRYKKPECQSDWQCPGKKRCCPDTCGIKCLD)”, the Ki (in general, the dissociation constant of the complex between target and ligand, obtained from inhibition or displacement) came out at 0.29 µM on tryptase and 0.13 µM in the assay on human mast cell tryptase [1]. For the same substance, the Inhibition of trypsin entry with bovine trypsin is given as “unable to inhibit”.
With “Dns-VIP: N-terminally dansylated vasoactive intestinal peptide (28 amino acids), tryptase substrate (Dansyl-HSDAVFTDNYTRLRKQMAVKKYLNSILN; ends and bridges not checked; also: synthesized on Rink resin (C-terminus not given here))”, the “decrease in the kcat/Km ratio” value with human mast cell tryptase [2] (10 mM CaCl2 vs no addition) was roughly 5 fold. Moreover, in the assay with human mast cell tryptase [2] (150 mM NaCl vs no addition), the “decrease in the kcat/Km ratio” value was found to be 9 fold and the “increase in Km” value stood at 14 fold. Besides, in the assay on human mast cell tryptase [2] (Addition: 10 mM CaCl2), the Km (usually the substrate concentration at which the rate is half of its maximum) is 4.7 µM; the Vmax – broadly, the rate approached at saturating substrate – is 8.2 pmol/min/mg; the kcat/Km turned out to be 0.4 M^-1 sec^1 × 10^7. For the same substance, in the assay on human mast cell tryptase [2] (Addition: 150 mM NaCl), the Km stood at 7.4 µM, the Vmax came to 6.6 pmol/min/mg and the kcat/Km is reported as 0.2 M^-1 sec^1 × 10^7. Further, in the assay on human mast cell tryptase [2] (Addition: None), the Km is 0.5 µM, the Vmax is given as 4.3 pmol/min/mg and the kcat/Km is 1.8 M^-1 sec^1 × 10^7.
“Dns-VIP-(1-14): Dansyl-VIP fragment of amino acids 1-14 formed by tryptase cleavage after Arg-14 (Dansyl-HSDAVFTDNYTRLR; UniProt P01282 125-138, looked up, fragment)”: the “decrease in the kcat/Km ratio” value in the assay on human mast cell tryptase [2] (10 mM CaCl2 vs no addition) is 9 fold. Moreover, in the assay on human mast cell tryptase [2] (150 mM NaCl vs no addition), the “decrease in the kcat/Km ratio” value is 16 fold, the “increase in Km” value was found to be 59 fold and the “increase in Vmax” value was 4 fold. In addition, in the assay with human mast cell tryptase [2] (Addition: 10 mM CaCl2), the Michaelis constant (Km) stood at 4.1 µM, the Vmax is listed as 4.5 pmol/min/mg and the kcat/Km was determined as 0.25 M^-1 sec^1 × 10^7. In the assay with human mast cell tryptase [2] (Addition: 150 mM NaCl), the Michaelis-Menten constant (Km) was found to be 7.7 µM, the Vmax was 4.9 pmol/min/mg and the kcat/Km is on record as 0.14 M^-1 sec^1 × 10^7. Besides, in the assay on human mast cell tryptase [2] (Addition: None), the Km came to 0.1 µM, the Vmax worked out at 1.3 pmol/min/mg and the kcat/Km is listed as 2.3 M^-1 sec^1 × 10^7.
Turning to “C-terminal domain: C-terminal domain of SLPI, amino acids 50-107, from formic acid cleavage of recombinant SLPI (PVDTPNPTRRKPGKCPVTYGQCLMLNPPNFCEMDGQCKRDLKCCMGMCGKSCVSPVKA)”, the Ki turned out to be 0.0048 µM at tryptase and 0.0016 µM in the assay on human mast cell tryptase [1].
As to “Dns-VIP-(1-20): Dansyl-VIP fragment of amino acids 1-20 formed by tryptase cleavage after Lys-20; peak includes the 1-21 shoulder (Dansyl-HSDAVFTDNYTRLRKQMAVK; UniProt P01282 125-144, looked up, fragment)”, the “decrease in the kcat/Km ratio” value in the assay on human mast cell tryptase [2] (10 mM CaCl2 vs no addition) is listed as 11 fold. Further, in the assay on human mast cell tryptase [2] (150 mM NaCl vs no addition), the “decrease in the kcat/Km ratio” value amounted to 47 fold and the “increase in Km” value worked out at 72 fold. In the assay on human mast cell tryptase [2] (Addition: 10 mM CaCl2), the Km is 4.5 µM, the maximum rate (Vmax) worked out at 2.6 pmol/min/mg and the kcat/Km is recorded as 0.13 M^-1 sec^1 × 10^7. Moreover, in the assay with human mast cell tryptase [2] (Addition: 150 mM NaCl), the Km was 9.4 µM, the Vmax is reported as 1.1 pmol/min/mg and the kcat/Km worked out at 0.03 M^-1 sec^1 × 10^7. In the assay with human mast cell tryptase [2] (Addition: None), the Km stood at 0.1 µM, the Vmax was found to be 0.6 pmol/min/mg and the kcat/Km is given as 1.4 M^-1 sec^1 × 10^7.

The record behind these values is patent US5633227A, “Secretory leukocyte protease inhibitor as an inhibitor of tryptase” (Miles, Inc., priority 1994, dated 1997).
